Consider four molecules from PubChem BioAssay AID330 (DTP/NCI, 2004).

Several values for one entry are separate records, joined by “and”; a condition that tells them apart may be missing. Identical values can stand only once. Toxic doses and inconclusive results are not listed.

The test system of the assay is P388 leukemia ip, CD2F1 mice, survival T/C. Kind of assay: NCI In Vivo Anticancer Drug Screen. Data for tumor model P388 Leukemia (intraperitoneal) in CD2F1 (CDF1) mice. The following applies: endpoint: median survival time, higher = longer survival. The method in brief:
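Mice carrying the transplanted tumor received test compound or vehicle. Survival was recorded in each group, and the value is the treated-group measurement divided by that of the vehicle-treated control group.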

Regarding `CC(=O)[C@]1(O)Cc2c(O)c3c(c(O)c2[C@@H](OC2CC(N)C(O)C(C)O2)C1)C(=O)c1c(O)cccc1C3=O` (stereo partly drawn), the T/C (dose: 0.05 mg/kg/injection, schedule: Q01DX009 (ip), vehicle: saline) is 150 % of control; the T/C (dose: 0.08 mg/kg/injection, schedule: Q01DX009 (ip), vehicle: saline) is 159 % of control; the T/C (dose: 0.08 mg/kg/injection, schedule: Q04DX003 (ip), vehicle: water) is 100 % of control and 97 % of control; the T/C (dose: 0.1 mg/kg/injection, schedule: Q04DX003 (ip), vehicle: saline) is 123 % of control; the T/C (dose: 0.14 mg/kg/injection, schedule: Q01DX009 (ip), vehicle: saline) is 177 % of control; the T/C (dose: 0.16 mg/kg/injection, schedule: Q04DX003 (ip), vehicle: water) was 109 % of control and 87 % of control. For the same molecule, the T/C (dose: 0.25 mg/kg/injection, schedule: Q04DX003 (ip), vehicle: water) is 119 % of control and 94 % of control; the T/C (dose: 0.3 mg/kg/injection, schedule: Q04DX003 (ip), vehicle: saline) is 154 % of control; the T/C (dose: 0.32 mg/kg/injection, schedule: Q04DX003 (ip), vehicle: saline) is 159 % of control; the T/C (dose: 0.36 mg/kg/injection, schedule: Q04DX003 (ip), vehicle: saline) is 160 % of control and 173 % of control; the T/C (dose: 0.36 mg/kg/injection, schedule: Q04DX003 (ip), vehicle: water) is 161 % of control; the T/C (dose: 0.39 mg/kg/injection, schedule: Q01DX001 (ip), vehicle: saline) was 159 % of control. In addition, the T/C is 100 % of control (dose: 0.39 mg/kg/injection, schedule: Q01DX009 (ip), vehicle: saline); 163 % of control (dose: 0.39 mg/kg/injection, schedule: Q04DX003 (ip), vehicle: saline); 154 % of control (dose: 0.4 mg/kg/injection, schedule: Q04DX003 (ip), vehicle: saline); 152 % of control and 160 % of control (dose: 0.43 mg/kg/injection, schedule: Q01DX001 (ip), vehicle: saline); 165 % of control (dose: 0.43 mg/kg/injection, schedule: Q04DX003 (ip), vehicle: saline); 116 % of control and 124 % of control (dose: 0.5 mg/kg/injection, schedule: Q04DX003 (ip), vehicle: water). Further, the T/C was 161 % of control (dose: 0.54 mg/kg/injection, schedule: Q04DX003 (ip), vehicle: saline); 154 % of control and 168 % of control (dose: 0.6 mg/kg/injection, schedule: Q04DX003 (ip), vehicle: saline); 170 % of control (dose: 0.6 mg/kg/injection, schedule: Q04DX003 (ip), vehicle: water); 112 % of control (dose: 0.6 mg/kg/injection, schedule: Q04DX003 (oral), vehicle: saline); 109 % of control and 115 % of control and 274 % of control (dose: 0.64 mg/kg/injection, schedule: Q04DX003 (ip), vehicle: water); 172 % of control (dose: 0.65 mg/kg/injection, schedule: Q01DX001 (ip), vehicle: saline). Also, the T/C by setting is: (dose: 0.65 mg/kg/injection, schedule: Q04DX003 (ip), vehicle: saline) 172 % of control; (dose: 0.72 mg/kg/injection, schedule: Q01DX001 (ip), vehicle: saline) 161 % of control and 180 % of control; (dose: 0.72 mg/kg/injection, schedule: Q04DX003 (ip), vehicle: saline) 167 % of control; (dose: 0.9 mg/kg/injection, schedule: Q04DX003 (ip), vehicle: saline) 160 % of control and 186 % of control; (dose: 1.0 mg/kg/injection, schedule: Q04DX003 (ip), vehicle: saline) 92 % of control and 94 % of control; (dose: 1.0 mg/kg/injection, schedule: Q04DX003 (ip), vehicle: water) 102 % of control. Moreover, the T/C is 110 % of control (dose: 1.0 mg/kg/injection, schedule: Q04DX003 (oral), vehicle: saline); 95 % of control (dose: 1.08 mg/kg/injection, schedule: Q01DX001 (ip), vehicle: saline); 100 % of control (dose: 1.08 mg/kg/injection, schedule: Q04DX003 (ip), vehicle: saline); 105 % of control (dose: 1.2 mg/kg/injection, schedule: Q01DX001 (ip), vehicle: saline); 110 % of control (dose: 1.2 mg/kg/injection, schedule: Q01DX001 (oral), vehicle: saline); 110 % of control (dose: 1.2 mg/kg/injection, schedule: Q04DX003 (ip), vehicle: saline). In addition, the T/C by setting is: (dose: 1.5 mg/kg/injection, schedule: Q04DX003 (ip), vehicle: saline) 108 % of control; (dose: 1.67 mg/kg/injection, schedule: Q04DX003 (oral), vehicle: saline) 115 % of control; (dose: 2.0 mg/kg/injection, schedule: Q01DX001 (oral), vehicle: saline) 102 % of control; (dose: 2.0 mg/kg/injection, schedule: Q04DX003 (ip), vehicle: water) 116 % of control; (dose: 2.78 mg/kg/injection, schedule: Q04DX003 (oral), vehicle: saline) 106 % of control and 110 % of control; (dose: 3.2 mg/kg/injection, schedule: Q04DX003 (ip), vehicle: saline) 105 % of control. The T/C (dose: 3.33 mg/kg/injection, schedule: Q01DX001 (oral), vehicle: saline) is 111 % of control and 116 % of control; the T/C (dose: 4.63 mg/kg/injection, schedule: Q04DX003 (oral), vehicle: saline) is 113 % of control; the T/C (dose: 5.56 mg/kg/injection, schedule: Q01DX001 (oral), vehicle: saline) is 114 % of control; the T/C (dose: 6.4 mg/kg/injection, schedule: Q04DX003 (ip), vehicle: saline) is 99 % of control; the T/C (dose: 7.72 mg/kg/injection, schedule: Q04DX003 (oral), vehicle: saline) was 166 % of control; the T/C (dose: 9.26 mg/kg/injection, schedule: Q01DX001 (oral), vehicle: saline) is 152 % of control. Moreover, the T/C (dose: 12.9 mg/kg/injection, schedule: Q04DX003 (oral), vehicle: saline) was 164 % of control; the T/C (dose: 6.25 micrograms/kg/injection, schedule: Q04DX003 (ip), vehicle: saline) is 120 % of control; the T/C (dose: 15.0 micrograms/kg/injection, schedule: Q04DX003 (ip), vehicle: saline) was 111 % of control; the T/C (dose: 25.0 micrograms/kg/injection, schedule: Q04DX003 (ip), vehicle: saline) was 116 % of control; the T/C (dose: 31.0 micrograms/kg/injection, schedule: Q04DX003 (ip), vehicle: saline) is 111 % of control; the T/C (dose: 50.0 micrograms/kg/injection, schedule: Q04DX003 (ip), vehicle: saline) is 111 % of control. The T/C is 107 % of control (dose: 62.0 micrograms/kg/injection, schedule: Q04DX003 (ip), vehicle: saline); 107 % of control (dose: 125.0 micrograms/kg/injection, schedule: Q04DX003 (ip), vehicle: saline); 119 % of control (dose: 200.0 micrograms/kg/injection, schedule: Q04DX003 (ip), vehicle: saline); 156 % of control (dose: 500.0 micrograms/kg/injection, schedule: Q04DX003 (ip), vehicle: saline); 122 % of control (dose: 800.0 micrograms/kg/injection, schedule: Q04DX003 (ip), vehicle: saline); 166 % of control (dose: 1000.0 micrograms/kg/injection, schedule: Q04DX003 (ip), vehicle: saline). Further, the T/C reads like this: (dose: 2000.0 micrograms/kg/injection, schedule: Q04DX003 (ip), vehicle: saline) 88 % of control; (dose: 3200.0 micrograms/kg/injection, schedule: Q04DX003 (ip), vehicle: saline) 103 % of control; (dose: 6400.0 micrograms/kg/injection, schedule: Q04DX003 (ip), vehicle: saline) 116 % of control.
Regarding `CCN(CC)c1ccc(NC(=S)NN)cc1`, the T/C is, setting by setting: (dose: 60.0 mg/kg/injection, schedule: Q01DX005 (ip), vehicle: Klucel (hydroxypropylcellulose) (HPC)) 100 % of control; (dose: 120.0 mg/kg/injection, schedule: Q01DX005 (ip), vehicle: Klucel (hydroxypropylcellulose) (HPC)) 97 % of control.
`CCOc1cc2c(cc1C(C)c1ccc(OC)c(C)c1)OCO2` (stereo not drawn): the T/C reads like this: (dose: 12.5 mg/kg/injection, schedule: Q01DX005 (ip), vehicle: Klucel (hydroxypropylcellulose) (HPC)) 92 % of control; (dose: 25.0 mg/kg/injection, schedule: Q01DX005 (ip), vehicle: Klucel (hydroxypropylcellulose) (HPC)) 91 % of control; (dose: 50.0 mg/kg/injection, schedule: Q01DX005 (ip), vehicle: Klucel (hydroxypropylcellulose) (HPC)) 102 % of control and 111 % of control; (dose: 100.0 mg/kg/injection, schedule: Q01DX005 (ip), vehicle: Klucel (hydroxypropylcellulose) (HPC)) 101 % of control and 112 % of control; (dose: 200.0 mg/kg/injection, schedule: Q01DX005 (ip), vehicle: Klucel (hydroxypropylcellulose) (HPC)) 101 % of control and 114 % of control.
As to `CN(C(=S=O)c1ccc([N+](=O)[O-])cc1)c1ccccc1`, the T/C is 100 % of control (dose: 50.0 mg/kg/injection, schedule: Q01DX009 (ip), vehicle: saline); 97 % of control (dose: 100.0 mg/kg/injection, schedule: Q01DX009 (ip), vehicle: saline); 104 % of control (dose: 200.0 mg/kg/injection, schedule: Q01DX009 (ip), vehicle: saline).
